The AUC is concentration integrated over time. Low readings indicate less exposure, high ones more exposure. Broadly, the Cmax is the peak of the concentration-time curve.

Three compounds from US9169255B2, “Caffeinated compounds and compositions for treatment of amyloid diseases and synucleinopathies” (ProteoTech Inc, priority 2011, dated 2015) can be followed below.

Data set [1] in a line: Plasma and brain pharmacokinetics in mice after intraperitoneal injection. The following applies: CD-1 female mice, i.p. injection at 50 mg/kg, 7-60 min post-dose; for AUC / Cmax: mouse, plasma, ip. It is filed as in vivo. From the text: For select compounds in this invention, we have used wild type mice to determine the following plasma pharmacokinetic (PK) parameters: maximal concentration (Cmax), and area under the curve (AUC) as derived from a time versus concentration plot. We have also determined the maximal mouse brain levels, and overall brain exposure over time of select compounds in this invention, expressed as Cmax-brain and AUC-brain, respectively. In order to establish the method, we assessed brain and plasma compound levels over time utilizing 50 mg/kg intraperitoneal (i.p.) injections of 2 control compounds. […] In a typical experiment to assess the compounds in this invention, we used CD-1 female mice with a sample size (n) equal to 4 mice per post-dose time-point (for example, 7, 15, 30, and 60 min post-dose). We chose early time points to assess initial exposure, when we expected plasma and brain exposure to be the high, though we may have missed even higher exposure at earlier time points (between 0 and 7 minutes) since brain and plasma levels were highest in our study at the earliest time point assessed (7 minutes).
For the purpose of these studies, each compound was formulated at 5 mg/mL in 20% polyethylene glycol (PEG)-400 in PBS+0.1% ascorbic acid (w/v). The dose volume was 10 mL/kg of body weight. Mice were administered test compound via intraperitoneal injection, and at about 2-3 minutes before scheduled sacrifice, they were deeply anesthetized with 2.5% avertin. Once anesthetized, whole blood was removed by cardiac puncture, transferred to appropriate EDTA-containing tubes, and immediately chilled on ice. This was followed by complete perfusion of each mouse with >15 ml cold 0.9% saline by cannulation of the left ventricle and clamping of the descending aorta. Brains were harvested, frozen on dry ice and stored at −80° C. for bioanalysis of the test compound. Plasma was extracted from whole blood by standard centrifugation techniques within 1 hour. Compounds were (liquid-liquid) extracted from plasma and brain homogenates using ethyl acetate, followed by HPLC/MS quantitation using methods (i.e. HPLC gradients and mass spectrometry parameters) developed for these novel compounds. All methods established sufficient stability in relevant matrices and solvents, and used internal quantitation controls. Quantitation was achieved using a calibration curve generated with compounds spiked into the appropriate matrix (i.e. 20% PEG-400/PBS+0.1% ascorbic acid). We have established lower limit of quantitative sensitivities of 5-25 ng/ml (plasma) and 5-25 ng/g (brain), sufficient for these studies. Following determination of the brain and plasma concentrations at the various post-dose time points, select plasma (Cmax and AUC) and brain (Cmax-brain and AUC-brain) PK parameters were determined with WinNonLin software (Pharsight Inc). We compared the values determined for the compounds in this invention to the values for the positive control compound that when administered at the same therapeutically relevant route and dose level (i.p. injection at 50 mg/kg) is known to be present in the plasma and the brain at levels sufficient for a biological effect (i.e. reduction of α-synuclein brain levels and improved motor function; data not shown).

Data set [2] deals with T1, A53T-mutant human α-synuclein (Homo sapiens, UniProt P37840, A53T).
T1 construct: expressed in transfected cells; host or cells: BE-M17 human neuroblastoma cells
Kind of data set: Thioflavin S-positive aggregates in rotenone-treated BE-M17 cells overexpressing A53T α-synuclein. It is filed as cell-based. From the text:
To test the therapeutic potential of the compounds, a cell-based assay was utilized. In this assay, rotenone is used to induce mitochondrial oxidative stress and cause α-synuclein aggregation. The assay utilizes the binding of the fluorescent dye Thioflavin S to structures with high β-sheet content, including α-synuclein fibrils. Therefore, quantitative assessment of the extent of Thioflavin S-positive staining of fixed cells is used to test the ability of the test compounds to inhibit/prevent or decrease the amount of α-synuclein aggregates relative to cells that were treated with rotenone only. This study is presented in the following examples.
BE-M17 human neuroblastoma cells stably transfected with A53T-mutant human α-synuclein were obtained. Cell culture reagents were obtained from Gibco/Invitrogen, and cells were grown in OPTIMEM supplemented with 10% FBS, Penicillin (100 units/ml), Streptomycin (100 μg/ml) and 500 μg/ml G418 as previously described (Ostrerova-Golts et al., J. Neurosci., 20:6048-6054, 2000).
Thioflavin S is commonly used to detect aggregated protein structures in situ, including in brain tissue (Vallet et al., Acta Neuropathol., 83:170-178, 1992), and cultured cells (Ostrerova-Golts et al., J. Neurosci., 20:6048-6054, 2000), whereas Thioflavin T is often used as an in vitro reagent to analyze the aggregation of soluble proteins into fibrils enriched in β-pleated sheet structures (LeVine III, Prot. Sci., 2:404-410, 1993). Therefore, Thioflavin S histochemistry was used on cultured cells to detect aggregates containing a high degree of β-pleated structures that formed in response to oxidative stress-inducing agents (in this case rotenone) as previously described, with minor modifications (Ostrerova-Golts et al., J. Neurosci., 20:6048-6054, 2000). Briefly, for these studies cells were grown on Poly-D-Lysine coated glass slide chambers at approximately 4.5−5.5×10^4 cells/cm^2. After 16-18 hours, cells were treated with 500 nM or 2 μM rotenone (Sigma) or vehicle (0.05% DMSO) as indicated. Within 15 minutes of rotenone (or vehicle) addition, compounds were added at the indicated concentration, or mock-treatment was performed in which cell culture media only (no compound) was added. Identical treatments were repeated after 48 hours. After an additional 24 hours, cells were fixed for 25 minutes in 3% paraformaldehyde. After a PBS wash and a deionized water wash, the cells were incubated with 0.015% Thioflavin S in 50% ethanol for 25 minutes, washed twice for four minutes in 50% ethanol and twice for five minutes in deionized water and then mounted using an aqueous-based mountant designed to protect against photobleaching. Aggregates that bind to Thioflavin S were detected with a fluorescent microscope using a High Q FITC filter set (480 to 535 nm bandwidth) and a 20× objective lens unless otherwise indicated. Between 8 and 20 (usually 16-18) representative images per condition were selected and imaged using Q Capture software by an experimenter who was blinded to treatment conditions. To assess the amount of Thioflavin S-positive aggregates, the total area per field covered by Thioflavin S-positive inclusions was determined by image analysis and quantitation. […] Spurious, non-cell associated fluorescence was manually removed. Unless indicated otherwise, comparisons between groups were made by comparing mean relative amounts of Thioflavin S-positive inclusions for a given treatment condition (i.e. cells treated with rotenone only versus cells treated with rotenone and test compound at a given concentration). Statistical analyses were performed with GraphPad Prism (GraphPad Inc). Differences between means (two samples) were assessed by the Student's t test. Differences among multiple means were assessed by one-factor ANOVA followed by Dunnett's post hoc test, compared to rotenone only treated cells. […]

Consider `Cn1c(=O)n(Cc2ccc(O)c(O)c2)c(=O)c2c1ncn2Cc1ccc(O)c(O)c1` [PD-151, 3-Methyl-1,7-bis(3′,4′-dihydroxybenzyl)xanthine], for which, in data set [1], the AUC-brain is 2,147 min*ng/g, the Cmax-brain came out at 59.2 ng/g, the AUC was 3540 ng·h/mL and the Cmax was determined as 5340 ng/mL. The “reduction of rotenone-induced Thioflavin S-positive aggregates relative to rotenone only-treated cells” value in data set [2] (500 nM rotenone, 500 nM compound) is reported as 52%. Also, the “reduction of rotenone-induced Thioflavin S-positive aggregates relative to rotenone only-treated cells” value in data set [2] (500 nM rotenone, 2 μM compound) was determined as 84%. The “reduction of rotenone-induced Thioflavin S-positive aggregates relative to rotenone only-treated cells” value in data set [2] (2 μM rotenone, 2 μM compound) came to 58%. Besides, the “reduction of rotenone-induced Thioflavin S-positive aggregates relative to rotenone only-treated cells” value in data set [2] (2 μM rotenone, 5 μM compound) is on record as 60%.

As to `Cn1cnc2c1c(=O)n(Cc1ccc(O)c(O)c1)c(=O)n2Cc1ccc(O)c(O)c1` [PD-150, 7-Methyl-1,3-bis(3′,4′-dihydroxy)benzylxanthine], in data set [1], the AUC-brain is 3,048 min*ng/g, the Cmax-brain was found to be 99.5 ng/g, the AUC was 2130 ng·h/mL and the maximum concentration (Cmax) is 3280 ng/mL.

As for `Cn1c(=O)c2c(ncn2Cc2ccc(O)c(O)c2)n(Cc2ccc(O)c(O)c2)c1=O` [PD-152], the “reduction of rotenone-induced Thioflavin S-positive aggregates relative to rotenone only-treated cells” value in data set [2] (500 nM rotenone, 2 μM compound) came out at 54%; in data set [2] (500 nM rotenone, 5 μM compound) it was 55%; in data set [2] (2 μM rotenone, 500 nM compound) it was 78%; in data set [2] (2 μM rotenone, 2 μM compound), 79%.
